pIC50: −log10 of the molar value. Structures can show the parent of a compound that is named as a salt.
biological target: human MK2 (Homo sapiens, UniProt P49137); experiment: MAPKAPK2 kinase assay (TR-FRET, Hsp27 peptide substrate)
Sequence (P49137 whole entry): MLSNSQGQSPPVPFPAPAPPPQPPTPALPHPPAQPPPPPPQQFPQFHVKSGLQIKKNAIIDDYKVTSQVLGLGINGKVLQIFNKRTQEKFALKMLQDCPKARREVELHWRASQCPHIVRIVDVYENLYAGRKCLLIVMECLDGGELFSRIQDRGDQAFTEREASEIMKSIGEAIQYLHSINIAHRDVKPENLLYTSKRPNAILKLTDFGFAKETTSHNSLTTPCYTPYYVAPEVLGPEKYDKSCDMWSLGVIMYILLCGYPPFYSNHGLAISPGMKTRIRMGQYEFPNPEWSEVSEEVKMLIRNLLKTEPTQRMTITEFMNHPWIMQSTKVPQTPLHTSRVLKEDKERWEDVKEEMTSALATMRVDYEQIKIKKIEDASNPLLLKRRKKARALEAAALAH

pIC50 | SMILES
7.28 | O=C1NC2(CC2)Cc2[nH]c3c(c21)CCc1cnc(-c2cncc(OC4CCOCC4)c2)cc1-3 [Example 94, 2-(1-Amino-cyclopropylmethyl)-8-[5-(tetrahydro-pyran-4-yloxy)-pyridin-3-yl]-4,5-dihydro-1H-pyrrolo[2,3-f]isoquinoline-3-carboxylic acid lactam]
7.00 | O=C1NC2(CC2)Cc2[nH]c3c(c21)CCc1cnc(-c2ccc(Oc4ccc(F)cc4F)nc2)cc1-3 [Example 95, 2-(1-Amino-cyclopropylmethyl)-8-[6-(2,4-difluoro-phenoxy)-pyridin-3-yl]-4,5-dihydro-1H-pyrrolo[2,3-f]isoquinoline-3-carboxylic acid lactam]
7.35 | O=C1NC2(CC2)Cc2[nH]c3c(c21)CCc1cnc(-c2ccc(OC4CCOCC4)nc2)cc1-3 [Example 96, 2-(1-Amino-cyclopropylmethyl)-8-[6-(tetrahydro-pyran-4-yloxy)-pyridin-3-yl]-4,5-dihydro-1H-pyrrolo[2,3-f]isoquinoline-3-carboxylic acid lactam]
7.31 | O=C1NC2(CCC2)Cc2[nH]c3c(c21)CCc1cnc(-c2ccc(OC4CCOCC4)nc2)cc1-3 [Example 108, 2-(1-Amino-cyclobutylmethyl)-8-[6-(tetrahydro-pyran-4-yloxy)-pyridin-3-yl]-4,5-dihydro-1H-pyrrolo[2,3-f]isoquinoline-3-carboxylic acid lactam]
7.38 | O=C1NC2(CCC2)Cc2[nH]c3c(c21)CCc1cnc(-c2cncc(OC4CCOCC4)c2)cc1-3 [Example 109, 2-(1-Amino-cyclobutylmethyl)-8-[5-(tetrahydro-pyran-4-yloxy)-pyridin-3-yl]-4,5-dihydro-1H-pyrrolo[2,3-f]isoquinoline-3-carboxylic acid lactam]
7.08 | O=C1NC2(CCC2)Cc2[nH]c3c(c21)CCc1cnc(-c2ccc(CN4CCOCC4)c(F)c2)cc1-3 [Example 110, 2-(1-Amino-cyclobutylmethyl)-8-(3-fluoro-4-morpholin-4-ylmethyl-phenyl)-4,5-dihydro-1H-pyrrolo[2,3-f]isoquinoline-3-carboxylic acid lactam]
8.15 | O=C1NCC2(CNC2)c2[nH]c3c(c21)CCc1cnc(-c2ccc(C(F)(F)F)nc2)cc1-3 [Example 166, 2-(3-Aminomethyl-azetidin-3-yl)-8-(6-trifluoromethyl-pyridin-3-yl)-4,5-dihydro-1H-pyrrolo[2,3-f]isoquinoline-3-carboxylic acid lactam hydrochloride]
7.85 | CN1CC2(CNC(=O)c3c2[nH]c2c3CCc3cnc(-c4ccc(C(F)(F)F)nc4)cc3-2)C1 [Example 168, 2-(3-Aminomethyl-1-methyl-azetidin-3-yl)-8-(6-trifluoromethyl-pyridin-3-yl)-4,5-dihydro-1H-pyrrolo[2,3-f]isoquinoline-3-carboxylic acid lactam]

Further lines, the compound ahead of its results:

SMILES | pIC50
O=C1NC2(CCC2)Cc2[nH]c3c(c21)CCc1cnc(/C=C/c2ccccc2)cc1-3 [Example 4, 2-(1-Amino-cyclobutylmethyl)-8-((E)-styryl)-4,5-dihydro-1H-pyrrolo[2,3-f]isoquinoline-3-carboxylic acid lactame] | 7.19
O=C1NC2(CC2)Cn2nc3c(c21)CCc1cnc(/C=C/c2ccccc2)cc1-3 [Example 10, 2-(1-Amino-cyclopropylmethyl)-8-((E)-styryl)-4,5-dihydro-2H-1,2,7-triaza-cyclopenta[a]naphthalene-3-carboxylic acid lactame] | < 8.00
COc1ccc(-c2cc3c(cn2)CCc2c-3nn3c2C(=O)NC2(CN(C(C)=O)C2)C3)cc1 [Example 12, 2-(1-Acetyl-3-amino-azetidin-3-ylmethyl)-8-(4-methoxy-phenyl)-4,5-dihydro-2H-1,2,7-triaza-cyclopenta[a]naphthalene-3-carboxylic acid lactame] | < 8.00
COc1ccc(-c2ncc3c(n2)-c2[nH]c4c(c2CC3)C(=O)NC2(CNC2)C4)cc1 [Example 18, 2-(3-Amino-azetidin-3-ylmethyl)-8-(4-methoxy-phenyl)-4,5-dihydro-1H-1,7,9-triaza-cyclopenta[a]naphthalene-3-carboxylic acid lactame hydrochloride] | 7.74
O=C1NC2(CNC2)Cc2[nH]c3c(c21)CCc1cnc(-c2cccc(F)c2)cc1-3 [Example 24, 2-(3-Amino-azetidin-3-ylmethyl)-8-(3-fluoro-phenyl)-4,5-dihydro-1H-pyrrolo[2,3-f]isoquinoline-3-carboxylic acid lactam hydrochloride] | 7.89
O=C1NC2(CNC2)Cc2[nH]c3c(c21)CCc1cnc(-c2cccc(F)c2)nc1-3 [Example 26, 2-(3-Amino-azetidin-3-ylmethyl)-8-(3-fluoro-phenyl)-4,5-dihydro-1H-1,7,9-triaza-cyclopenta[a]naphthalene-3-carboxylic acid lactam hydrochloride] | 7.82
Cn1c2c(c3c1-c1nc(-c4cccc(F)c4)ncc1CC3)C(=O)NC1(CNC1)C2 [Example 27, 2-(3-Amino-azetidin-3-ylmethyl)-8-(3-fluoro-phenyl)-1-methyl-4,5-dihydro-1H-1,7,9-triaza-cyclopenta[a]naphthalene-3-carboxylic acid lactam hydrochloride] | 7.37
O=C1NC2(CC2)Cc2[nH]c3c(c21)CCc1cnc(-c2ccc(N4CCCCC4)nc2)cc1-3 [Example 83, 2-(1-Amino-cyclopropylmethyl)-8-(3,4,5,6-tetrahydro-2H-[1,2′]bipyridinyl-5′-yl)-4,5-dihydro-1H-pyrrolo[2,3-f]isoquinoline-3-carboxylic acid lactam] | 7.14
Cc1cncc(-c2cc3c(cn2)CCc2c-3[nH]c3c2C(=O)NC2(CC2)C3)c1 [Example 84, 2-(1-Amino-cyclopropylmethyl)-8-(5-methyl-pyridin-3-yl)-4,5-dihydro-1H-pyrrolo[2,3-f]isoquinoline-3-carboxylic acid lactam] | 7.41
COc1cncc(-c2cc3c(cn2)CCc2c-3[nH]c3c2C(=O)NC2(CC2)C3)c1 [Example 87, 2-(1-Amino-cyclopropylmethyl)-8-(5-methoxy-pyridin-3-yl)-4,5-dihydro-1H-pyrrolo[2,3-f]isoquinoline-3-carboxylic acid lactam] | 7.38
COc1ccc(-c2cc3c(cn2)CCc2c-3[nH]c3c2C(=O)NC2(CC2)C3)cn1 [Example 88, 2-(1-Amino-cyclopropylmethyl)-8-(6-methoxy-pyridin-3-yl)-4,5-dihydro-1H-pyrrolo[2,3-f]isoquinoline-3-carboxylic acid lactam] | 7.42
O=C1NC2(CC2)Cc2[nH]c3c(c21)CCc1cnc(-c2cncc(F)c2)cc1-3 [Example 89, 2-(1-Amino-cyclopropylmethyl)-8-(5-fluoro-pyridin-3-yl)-4,5-dihydro-1H-pyrrolo[2,3-f]isoquinoline-3-carboxylic acid lactam] | 7.10
CCOc1ccc(-c2cc3c(cn2)CCc2c-3[nH]c3c2C(=O)NC2(CC2)C3)cn1 [Example 90, 2-(1-Amino-cyclopropylmethyl)-8-(6-ethoxy-pyridin-3-yl)-4,5-dihydro-1H-pyrrolo[2,3-f]isoquinoline-3-carboxylic acid lactam] | 7.04
O=C1NC2(CC2)Cc2[nH]c3c(c21)CCc1cnc(-c2cccnc2)cc1-3 [Example 93, 2-(1-Amino-cyclopropylmethyl)-8-pyridin-3-yl-4,5-dihydro-1H-pyrrolo[2,3-f]isoquinoline-3-carboxylic acid lactam] | 7.29
